Where “and” joins values, the source holds several entries; their conditions need not be identical. Equal entries are not always repeated. Entries after “also recorded” stand apart in the source; their conditions may differ. Where two headings read alike, the source gives them in different places.

One assay deals with PpPII (Porphyra purpurea, UniProt P51254). Put plainly: ITC binding of small effector molecules to red algal PpPII. On the procedure: (§1) To gain additional insights into the ligand binding properties of PpPII in comparison to cyanobacterial and chloroplastid PII proteins, isothermal titration calorimetry (ITC) experiments were performed using highly purified Strep-tagged or His-tagged recombinant PpPII, SyPII, CrPII, and PhyscoPII proteins (Supplementary Fig. S1) with different protein/ligand/ concentrations to determine the best fitting conditions of the binding model. The titration experiments were repeated with different protein preparations to confirm the reproducibility of the results. The raw isothermal data were fitted into one-binding site as well as three-sequential binding sites to define the best fitting model. Fitting using a one binding site model states an average Kd value for all available binding sites and the mean of the stoichiometry of bound ligands.
Sequence of PpPII (P51254 whole entry): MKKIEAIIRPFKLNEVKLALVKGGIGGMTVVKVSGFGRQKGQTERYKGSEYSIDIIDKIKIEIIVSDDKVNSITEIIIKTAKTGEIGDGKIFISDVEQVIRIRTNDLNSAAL
(§2) The ITC experiments were done using a VP-ITC microcalorimeter (MicroCal, LCC). All details for determination of binding constants for small effector molecules using ITC are fully described in the supplementary information. Heat isotherms of the dilution of the ligand in the cell buffer were collected in a blank run for each experiment in the absence of protein. The binding isotherms were calculated from received data and fitted to one-site and three-sequential binding sites models using the MicroCal ORIGIN software (Northampton) as described. All titrations were performed in duplicates with different purification batches of recombinant PII proteins. The association binding constant (Ka) was generated from the software by de-convolution and curve fitting. For calculation of dissociation constant (Kd), the Ka value was inversed.
(§3) Supplementary Information […]
(§4) Determination of Binding Constants for Small Effector Molecules using Isothermal […]
(§5) The binding of the small effector molecules to the recombinant PII proteins was tested using isothermal titration calarmity (ITC); VP-ITC microcalorimeter (MicroCal). All titrations were performed on 20°C using […] injection syringe with injection 6 µl or 10 µl of the tested ligands for 45 or 29 times, respectively into the cell (1.4 ml) with continuous stirring at 155 rpm. All tested ligands were high grade, prepared freshly in the same buffer of the protein and purchased from Sigma-Aldrich. Heat isotherms for the dilution of the ligand in the cell buffer were collected in a blank run in the absence of protein. The received calorimetric data were analyzed using MicroCal Origin software and fitted into one-site and three-sequential binding sites models, as indicated by the manufacture for calculation of binding isotherms9. For data reproducibility, the titrations were performed in duplicates with different purification batches of recombinant PII proteins. The association binding constant (Ka) was generated from the software by de-convolution and curve fitting. For calculation of dissociation constant (Kd), the Ka value was inversed.
For determination the binding isotherms of red algal PpPII protein, a buffer system composed of […]
used. For determination ATP and ADP binding isotherms upon the binding to PpPII protein, His- […]
against 2 mM ATP or 2 mM ADP. For determination of ATP and ADP binding isotherms in […]
concentration) was titrated against 0.5 mM of ATP or 1 mM ADP, respectively. However, for […]
of 1 mM of ATP or 1 mM ADP. […]

The target of another assay is PhyscoPII. Put plainly: ITC binding of small effector molecules to plant-moss PhyscoPII. Further details: species or system Physcomitrella patens. On the procedure:
as §1, §2, §3, §4, §5
5 mM MgCl2, 0.5 mM EDTA, and 10% glycerol (pH 7.6). […]
For determination the binding isotherms of plant-moss PhyscoPII protein, a strep-tagged recombinant protein (5 or 6 µM trimeric concentration) was used in system composed of 20 mM

In assay [1] the target is T1, SyPII (Synechococcus elongatus, UniProt P0A3F4).
T1 construct: Strep-tag; made in house
T1 sequence (P0A3F4 whole entry): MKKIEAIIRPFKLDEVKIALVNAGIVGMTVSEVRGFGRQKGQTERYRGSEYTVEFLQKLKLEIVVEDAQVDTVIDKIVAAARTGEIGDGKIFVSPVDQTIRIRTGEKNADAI
The settings on record: in presence ADP, given in parentheses for comparison; cited from earlier work.

Another assay has as its target CrPII. As to the kind of experiment: ITC binding of small effector molecules to green algal CrPII. Further details: species or system Chlamydomonas reinhardtii. On the procedure:
as §1, §2, §3, §4
as §5, with “inversed. […]” for “inversed.”

Assay [2] concerns the target T1, SyPII. Put plainly: ITC binding of small effector molecules to cyanobacterial SyPII. The arrangement: species or system Synechococcus elongatus PCC 7942. The method, then:
as §1, §2, §3, §4
as §5, with “inversed. […]” for “inversed.”
For determination the binding isotherms of cyanobacterial SyPII protein, a strep-tagged recombinant protein (20 µM trimeric concentration) was overexpressed and used as described previously9, 15, in a buffer composed of 10 mM Hepes-NaOH, 50 mM KCl, 50 mM NaCl, and 1

Another assay concerns the target T2, ScNAGK (Synechocystis sp., UniProt P73326).
T2 sequence (P73326 1-297): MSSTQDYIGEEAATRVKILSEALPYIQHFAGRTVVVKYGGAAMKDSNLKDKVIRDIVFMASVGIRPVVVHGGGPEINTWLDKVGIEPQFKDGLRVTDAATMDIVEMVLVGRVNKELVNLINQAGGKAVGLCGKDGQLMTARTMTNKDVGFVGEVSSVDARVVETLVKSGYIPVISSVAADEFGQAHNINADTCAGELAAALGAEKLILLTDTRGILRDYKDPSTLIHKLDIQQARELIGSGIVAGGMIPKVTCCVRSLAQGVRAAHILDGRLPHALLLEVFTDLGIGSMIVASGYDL
Put plainly: Coupled NAGK activity assay, ScNAGK. It counts as biochemical, Synechocystis sp. PCC 6803.

A further assay addresses PpPII-ScNAGK complex (Porphyra purpurea, UniProt P51254). Put plainly: Coupled NAGK activity assay, ScNAGK with PpPII. The format is biochemical, Synechocystis sp. PCC 6803; Porphyra purpurea. As to conditions: ScNAGK in the presence of PpPII, fixed 10 mM ATP.
The mark [3] stands for this setting: titrant alone, read-out: Average Kd (one-site binding model).
Setting [4] is: titrant alone, read-out: Kd1 (three-sites binding model).
Setting [5] is: titrant alone, read-out: Kd2 (three-sites binding model).
The mark [6] stands for this setting: titrant alone, read-out: Kd3 (three-sites binding model).

Sequence of PpPII-ScNAGK complex (P51254 whole entry, one chain of several): as the sequence (P51254 whole entry) above
Experimental for PpPII-ScNAGK complex: The assess the activity of ScNAGK was measured with an enzyme assay, in which the ADP production was coupled to the NADH oxidation by the auxiliary enzymes pyruvate kinase and lactate dehydrogenase according to previously described procedure[32],[50]. […] The oxidation reaction of NADH was recorded for 10 min using spectrophotometer (SPECORD 210 PLUS, Analytik Jena AG) at 340 nm. […] The NADH molar absorption coefficient is 6178 L mol^−1 cm^−1 for at 340 nm, which was used for calculation. […] From the velocity slopes, the enzymatic constants Km, Kcat and IC50 were calculated using the Graph-Pad Prism software (GraphPad Software, USA).

Take `O=C(O)CCC(=O)C(=O)O` [2-OG, 2-oxoglutarate]: the “N, number of calculated binding sites (one-site binding model)” value is on record as “No binding” on PpPII (in presence ADP (1 mM)), 1.0 at PpPII (in presence ATP (1 mM)), “(No binding)” on SyPII [1] and 1.4 at SyPII [2] (in presence ATP (2 mM)). For the same molecule, the figures for the “Average Kd (one-site binding model)” value at PhyscoPII (in presence ATP (1 mM)) and on CrPII (in presence ADP (2 mM)) were “unable to detect any binding; also recorded: No binding” and “never observed binding; also recorded: No binding”, respectively. Further, the “Kd1 (three-sites binding model)” value on PhyscoPII (in presence ATP (1 mM)) and on CrPII (in presence ADP (2 mM)) was “No binding” each time. Also, the “Kd2 (three-sites binding model)” value on PhyscoPII (in presence ATP (1 mM)) and on CrPII (in presence ADP (2 mM)) was “No binding” each time. Besides, the “Kd3 (three-sites binding model)” value on PhyscoPII (in presence ATP (1 mM)) and on CrPII (in presence ADP (2 mM)) was “No binding” in each case. Moreover, the Kd on CrPII (in presence ATP (2 mM), read-out: Average Kd (one-site binding model)) turned out to be 15 ± 5.4 µM; at CrPII (in presence ATP (2 mM), read-out: Kd1 (three-sites binding model)), 4.2 ± 0.7 µM; at CrPII (in presence ATP (2 mM), read-out: Kd2 (three-sites binding model)), 21.3 ± 11 µM; at CrPII (in presence ATP (2 mM), read-out: Kd3 (three-sites binding model)), 45.5 ± 19.8 µM.

Turning to `Nc1ncnc2c1ncn2[C@@H]1O[C@H](COP(=O)(O)OP(=O)(O)OP(=O)(O)O)[C@@H](O)[C@H]1O` [ATP], the Kd on PpPII (Average Kd (one-site binding model), in presence 2-OG (1 mM)) was 0.2 ± 0.3 µM; at PpPII (Average Kd (one-site binding model), titrant alone) it was ~22 µM and 22 µM; on PpPII (Kd1 (three-sites binding model), in presence 2-OG (1 mM)), 1.4 ± 1.8 µM; on PpPII (Kd1 (three-sites binding model), titrant alone), 0.5 ± 0.2 µM; on PpPII (Kd2 (three-sites binding model), in presence 2-OG (1 mM)), 1 ± 0.9 µM; on PpPII (Kd3 (three-sites binding model), in presence 2-OG (1 mM)), 83.9 ± 62.4 µM. Also, the Kd at PpPII (Kd3 (three-sites binding model), titrant alone) was 142 ± 80.8 µM; at PpPII (read-out: Kd2 (three-sites binding model), titrant alone) it was 18.7 ± 9.2 µM; on PhyscoPII (in presence 2-OG, read-out: Average Kd (one-site binding model)) it was 17.6 ± 7.5 µM; at PhyscoPII (in presence 2-OG, read-out: Kd1 (three-sites binding model)), 8 ± 6 µM; on PhyscoPII (in presence 2-OG, read-out: Kd2 (three-sites binding model)) it was 16.3 ± 11.4 µM; on PhyscoPII (in presence 2-OG, read-out: Kd3 (three-sites binding model)) it was 129 ± 128 µM. Besides, the Kd worked out at 26.8 ± 10.5 µM on PhyscoPII (setting [3]); 5.7 ± 1.4 µM on PhyscoPII (setting [4]); 13.6 ± 7.2 µM on PhyscoPII (setting [5]); 48.2 ± 29.3 µM at PhyscoPII (setting [6]); 35.8 ± 1.6 µM on CrPII (in presence 2-OG (2 mM), read-out: Average Kd (one-site binding model)); 5.8 ± 5.8 µM at CrPII (in presence 2-OG (2 mM), read-out: Kd1 (three-sites binding model)). Further, the Kd turned out to be 53.1 ± 58.3 µM at CrPII (in presence 2-OG (2 mM), read-out: Kd2 (three-sites binding model)); 61.6 ± 9.7 µM on CrPII (in presence 2-OG (2 mM), read-out: Kd3 (three-sites binding model)); 2.7 ± 0.1 µM on SyPII [2] (in presence 2-OG (1 mM), read-out: Average Kd (one-site binding model)); 0.5 ± 0.5 µM on SyPII [2] (in presence 2-OG (1 mM), read-out: Kd1 (three-sites binding model)); 3 ± 1.7 µM on SyPII [2] (in presence 2-OG (1 mM), read-out: Kd2 (three-sites binding model)); 325 ± 171 µM at SyPII [2] (in presence 2-OG (1 mM), read-out: Kd3 (three-sites binding model)). In addition, the Kd on SyPII [2] (setting [3]) was found to be 43.3 ± 37.7 µM; on SyPII [2] (setting [4]) it was 7.5 ± 7.3 µM; on SyPII [2] (setting [5]), 15.9 ± 12.2 µM; at SyPII [2] (setting [6]), 85.4 ± 74.6 µM. In addition, the “N, number of calculated binding sites (one-site binding model)” value was 1.0 on PpPII (in presence 2-OG (1 mM)); 2.5 on PpPII (titrant alone, per PII trimer); 1.8 on SyPII [2] (in presence 2-OG (1 mM)); 3.2 at SyPII [2] (titrant alone). The “Average Kd (one-site binding model)” value on CrPII (titrant alone) is listed as “unable to notice any binding; also recorded: No binding”. In addition, the “Kd1 (three-sites binding model)” value on CrPII (titrant alone) is recorded as “No binding”. The “Kd2 (three-sites binding model)” value at CrPII (titrant alone) is “No binding”. For the same molecule, the “Kd3 (three-sites binding model)” value at CrPII (titrant alone) was “No binding”.

On to `CC(=O)N[C@@H](CCC(=O)O)C(=O)O` [NAG, N-acetyl glutamate], for which the Kcat on ScNAGK (free ScNAGK, NAG variable substrate, fixed 10 mM ATP) was 8.93 ± 1.40 s⁻¹; at PpPII-ScNAGK complex (NAG variable substrate) it was 10.02 ± 1.11 s⁻¹. Moreover, the Michaelis constant (Km) amounted to 16.2 ± 2.14 mM on ScNAGK (read-out: Km value for N-acetyl glutamate (NAG), free ScNAGK, fixed 10 mM ATP) and 4.25 ± 0.36 mM at PpPII-ScNAGK complex (read-out: apparent Km for NAG).

As for `N=C(N)NCCC[C@H](N)C(=O)O` [arginine], the IC50 at ScNAGK (read-out: Feedback inhibition of ScNAGK, half maximal inhibitory concentration (IC50)) was 6.2 µM.
